Reference: ChEMBL document CHEMBL3885881, “DrugMatrix”

Species on record: Rattus norvegicus
Experiment: DrugMatrix - Regimen: Daily Repeat
Format: toxicity, organism-based, Sprague-Dawley
Design: regimen Daily Repeat, gender Male, age 6-8 weeks
Conditions: in vivo, po, route oral GAVAGE, vehicle .5 % CMC; for ABSOLUTE BASOPHIL / ABSOLUTE EOSINOPHIL / ABSOLUTE LYMPHOCYTE / ABSOLUTE MONOCYTE / ABSOLUTE SEGMENTED NEUTROPHIL / BASOPHIL / EOSINOPHIL / ERYTHROCYTE COUNT / HEMATOCRIT / HEMOGLOBIN / LEUKOCYTE COUNT / LYMPHOCYTE / MEAN CORPUSCULAR HEMOGLOBIN / MEAN CORPUSCULAR HEMOGLOBIN CONCENTRATION / MEAN CORPUSCULAR VOLUME / MONOCYTE / NEUTROPHIL / NUCLEATED RED BLOOD CELLS / PLATELET COUNT: tissue Blood; for ALANINE AMINOTRANSFERASE / ALBUMIN / ALKALINE PHOSPHATASE / ASPARTATE AMINOTRANSFERASE / BLOOD UREA NITROGEN / CARBON DIOXIDE / CHLORIDE / CHOLESTEROL / CREATINE PHOSPHOKINASE / CREATININE / GLUCOSE / LACTATE DEHYDROGENASE / LIPASE / PHOSPHORUS / POTASSIUM / SODIUM / TOTAL BILIRUBIN / TOTAL PROTEIN / URIC ACID: tissue Plasma
[1] = 200 mg/kg, 72 h, dose level Low, time 3 day
[2] = 200 mg/kg, 120 h, dose level Low, time 5 day
[3] = 1000 mg/kg, 72 h, dose level High, time 3 day
[4] = 1000 mg/kg, 120 h, dose level High, time 5 day

Structure (SMILES): c1ccc(Nc2ccc(Nc3ccccc3)cc2)cc1
- ABSOLUTE BASOPHIL [1]: 0 CELLS/uL
- ABSOLUTE EOSINOPHIL [1]: 237 CELLS/uL
- ABSOLUTE LYMPHOCYTE [1]: 13213.33 CELLS/uL
- ABSOLUTE MONOCYTE [1]: 291.33 CELLS/uL
- ABSOLUTE SEGMENTED NEUTROPHIL [1]: 1225 CELLS/uL
- BASOPHIL [1]: 0%
- EOSINOPHIL [1]: 1.67%
- ERYTHROCYTE COUNT [1]: 5.4 x10E6/uL
- HEMATOCRIT [1]: 33.57%
- HEMOGLOBIN [1]: 12.87 G/DL
- LEUKOCYTE COUNT [1]: 14.97 x10E3/uL
- LYMPHOCYTE [1]: 88%
- MEAN CORPUSCULAR HEMOGLOBIN [1]: 23.83 pg
- MEAN CORPUSCULAR HEMOGLOBIN CONCENTRATION [1]: 38.33 G/DL
- MEAN CORPUSCULAR VOLUME [1]: 62.2 fL
- MONOCYTE [1]: 2%
- NEUTROPHIL [1]: 8.33%
- NUCLEATED RED BLOOD CELLS [1]: 0 /100WBC
- PLATELET COUNT [1]: 1471 x10E3/uL
- ALANINE AMINOTRANSFERASE [1]: 46.67 u/L
- ALBUMIN [1]: 4.2 G/DL
- ALKALINE PHOSPHATASE [1]: 353.67 u/L
- ASPARTATE AMINOTRANSFERASE [1]: 106.33 u/L
- BLOOD UREA NITROGEN [1]: 15 mg/dL
- CARBON DIOXIDE [1]: 22 mmol/L
- CHLORIDE [1]: 105.33 MEQ/L
- CHOLESTEROL [1]: 67 mg/dL
- CREATINE PHOSPHOKINASE [1]: 1002.33 u/L
- CREATININE [1]: 0.23 mg/dL
- GLUCOSE [1]: 178.33 mg/dL
- LACTATE DEHYDROGENASE [1]: 537.67 u/L
- LIPASE [1]: 9.33 u/L
- PHOSPHORUS [1]: 12.7 mg/dL
- POTASSIUM [1]: 6.26 MEQ/L
- SODIUM [1]: 143.9 MEQ/L
- TOTAL BILIRUBIN [1]: 0.23 mg/dL
- TOTAL PROTEIN [1]: 5.57 G/DL
- URIC ACID [1]: 1.87 mg/dL
- ABSOLUTE BASOPHIL [2]: 0 CELLS/uL
- ABSOLUTE EOSINOPHIL [2]: 45 CELLS/uL
- ABSOLUTE LYMPHOCYTE [2]: 13082 CELLS/uL
- ABSOLUTE MONOCYTE [2]: 237 CELLS/uL
- ABSOLUTE SEGMENTED NEUTROPHIL [2]: 736 CELLS/uL
- BASOPHIL [2]: 0%
- EOSINOPHIL [2]: 0.33%
- ERYTHROCYTE COUNT [2]: 5.63 x10E6/uL
- HEMATOCRIT [2]: 36.07%
- HEMOGLOBIN [2]: 13.67 G/DL
- LEUKOCYTE COUNT [2]: 14.1 x10E3/uL
- LYMPHOCYTE [2]: 92.67%
- MEAN CORPUSCULAR HEMOGLOBIN [2]: 24.23 pg
- MEAN CORPUSCULAR HEMOGLOBIN CONCENTRATION [2]: 37.93 G/DL
- MEAN CORPUSCULAR VOLUME [2]: 63.97 fL
- MONOCYTE [2]: 1.67%
- NEUTROPHIL [2]: 5.33%
- NUCLEATED RED BLOOD CELLS [2]: 0.33 /100WBC
- PLATELET COUNT [2]: 1272.33 x10E3/uL
- ALANINE AMINOTRANSFERASE [2]: 46 u/L
- ALBUMIN [2]: 4.23 G/DL
- ALKALINE PHOSPHATASE [2]: 349 u/L
- ASPARTATE AMINOTRANSFERASE [2]: 77.67 u/L
- BLOOD UREA NITROGEN [2]: 17 mg/dL
- CARBON DIOXIDE [2]: 28 mmol/L
- CHLORIDE [2]: 105.67 MEQ/L
- CHOLESTEROL [2]: 70.67 mg/dL
- CREATINE PHOSPHOKINASE [2]: 230.33 u/L
- CREATININE [2]: 0.24 mg/dL
- GLUCOSE [2]: 178 mg/dL
- LACTATE DEHYDROGENASE [2]: 121.33 u/L
- LIPASE [2]: 8.67 u/L
- PHOSPHORUS [2]: 12.4 mg/dL
- POTASSIUM [2]: 6.76 MEQ/L
- SODIUM [2]: 148.13 MEQ/L
- TOTAL BILIRUBIN [2]: 0.23 mg/dL
- TOTAL PROTEIN [2]: 5.83 G/DL
- URIC ACID [2]: 2 mg/dL
- ABSOLUTE BASOPHIL [3]: 0 CELLS/uL
- ABSOLUTE EOSINOPHIL [3]: 52.33 CELLS/uL
- ABSOLUTE LYMPHOCYTE [3]: 13944 CELLS/uL
- ABSOLUTE MONOCYTE [3]: 300.33 CELLS/uL
- ABSOLUTE SEGMENTED NEUTROPHIL [3]: 1236.67 CELLS/uL
- BASOPHIL [3]: 0%
- EOSINOPHIL [3]: 0.33%
- ERYTHROCYTE COUNT [3]: 5.47 x10E6/uL
- HEMATOCRIT [3]: 34.97%
- HEMOGLOBIN [3]: 13.1 G/DL
- LEUKOCYTE COUNT [3]: 15.53 x10E3/uL
- LYMPHOCYTE [3]: 89.67%
- MEAN CORPUSCULAR HEMOGLOBIN [3]: 23.97 pg
- MEAN CORPUSCULAR HEMOGLOBIN CONCENTRATION [3]: 37.47 G/DL
- MEAN CORPUSCULAR VOLUME [3]: 63.93 fL
- MONOCYTE [3]: 2%
- NEUTROPHIL [3]: 8%
- NUCLEATED RED BLOOD CELLS [3]: 0 /100WBC
- PLATELET COUNT [3]: 1345 x10E3/uL
- ALANINE AMINOTRANSFERASE [3]: 40 u/L
- ALBUMIN [3]: 4.3 G/DL
- ALKALINE PHOSPHATASE [3]: 405.33 u/L
- ASPARTATE AMINOTRANSFERASE [3]: 83 u/L
- BLOOD UREA NITROGEN [3]: 18.33 mg/dL
- CARBON DIOXIDE [3]: 26.33 mmol/L
- CHLORIDE [3]: 102.33 MEQ/L
- CHOLESTEROL [3]: 78.33 mg/dL
- CREATINE PHOSPHOKINASE [3]: 324.33 u/L
- CREATININE [3]: 0.21 mg/dL
- GLUCOSE [3]: 155.67 mg/dL
- LACTATE DEHYDROGENASE [3]: 398 u/L
- LIPASE [3]: 8.67 u/L
- PHOSPHORUS [3]: 12.6 mg/dL
- POTASSIUM [3]: 7.38 MEQ/L
- SODIUM [3]: 144.77 MEQ/L
- TOTAL BILIRUBIN [3]: 0.33 mg/dL
- TOTAL PROTEIN [3]: 5.8 G/DL
- URIC ACID [3]: 1.47 mg/dL
- ABSOLUTE BASOPHIL [4]: 0 CELLS/uL
- ABSOLUTE EOSINOPHIL [4]: 50 CELLS/uL
- ABSOLUTE LYMPHOCYTE [4]: 13072 CELLS/uL
- ABSOLUTE MONOCYTE [4]: 337.33 CELLS/uL
- ABSOLUTE SEGMENTED NEUTROPHIL [4]: 907.33 CELLS/uL
- BASOPHIL [4]: 0%
- EOSINOPHIL [4]: 0.33%
- ERYTHROCYTE COUNT [4]: 5.47 x10E6/uL
- HEMATOCRIT [4]: 35.47%
- HEMOGLOBIN [4]: 13.47 G/DL
- LEUKOCYTE COUNT [4]: 14.37 x10E3/uL
- LYMPHOCYTE [4]: 91%
- MEAN CORPUSCULAR HEMOGLOBIN [4]: 24.77 pg
- MEAN CORPUSCULAR HEMOGLOBIN CONCENTRATION [4]: 37.97 G/DL
- MEAN CORPUSCULAR VOLUME [4]: 65.07 fL
- MONOCYTE [4]: 2.33%
- NEUTROPHIL [4]: 6.33%
- NUCLEATED RED BLOOD CELLS [4]: 0 /100WBC
- PLATELET COUNT [4]: 1396.67 x10E3/uL
- ALANINE AMINOTRANSFERASE [4]: 42.33 u/L
- ALBUMIN [4]: 4.23 G/DL
- ALKALINE PHOSPHATASE [4]: 316.67 u/L
- ASPARTATE AMINOTRANSFERASE [4]: 67 u/L
- BLOOD UREA NITROGEN [4]: 16.33 mg/dL
- CARBON DIOXIDE [4]: 29 mmol/L
- CHLORIDE [4]: 105.67 MEQ/L
- CHOLESTEROL [4]: 69.33 mg/dL
- CREATINE PHOSPHOKINASE [4]: 202.33 u/L
- CREATININE [4]: 0.25 mg/dL
- GLUCOSE [4]: 159 mg/dL
- LACTATE DEHYDROGENASE [4]: 84.33 u/L
- LIPASE [4]: 9 u/L
- PHOSPHORUS [4]: 12.27 mg/dL
- POTASSIUM [4]: 6.19 MEQ/L
- SODIUM [4]: 146.97 MEQ/L
- TOTAL BILIRUBIN [4]: 0.33 mg/dL
- TOTAL PROTEIN [4]: 5.83 G/DL
- URIC ACID [4]: 1.73 mg/dL
